“Also recorded” adds a separate entry of the source.
Tested on: HEK293-hL1 cells
Assay: Haptotactic cell migration assay in Transwell chambers, HEK293-hL1 cells
Type: cell-based, human
Settings: fibronectin, 24 h after transient transfection (FIG. 11)
Method: (C) Inhibition of haptotactic cell migration in the absence or presence of the indicated mAbs to integrins at a final concentration of 10 μg/ml. FN at 10 μg/ml or BSA for control were coated onto the backside of Transwell chambers. Cells were seeded into the top chamber and allowed to transmigrate for 16 hr at 37° C. The antibody was present during the assay time. Each determination was done in quadruplicate and transmigrated cells were stained from the back of the filter. The dye was eluted from the filter and measured at 595 nm. The amount of dye is proportional to the number of transmigrated cells. Values for the migration on BSA were below 0.25 O.D. units for each cell type.
The haptotactic cell migration assay on fibronectin, laminin or BSA was performed in Transwell chambers (Costar, 6.5 mm diameter, 5 um pore size) and was described in detail elsewhere (Mechtersheimer et al., supra). Transmigrated cells were quantified by staining of the transwell membranes with cristalviolet solution as described (Mechtersheimer at al., supra). The eluted dye was measured at 595 nm in an ELISA reader.

Compound: COc1cccc(-c2cc(=O)c3ccccc3o2)c1N [PD59098]
- suppression of enhanced (L1-dependent) migration of HEK-293-hL1 wild type cells: same effect; also recorded: could block the L1-dependent migration
